{"source": "the NIST ThermoML archive (doi:10.1021/je300997v)", "assay": "xn = mol fraction of the nth substance listed", "conditions": "101 kPa, Liquid; for viscosity: Capillary tube (Ostwald / Ubbelohde) method; for mass density: Pycnometric method; for electrical conductivity: conductivity meter", "note": "± gives the expanded uncertainty stated by the source.", "data": [{"smiles": "C[N+](C)(C)CCO.[Cl-]", "note": "[choline chloride] + Oc1ccccc1", "values": [{"measurement": "viscosity", "setting": "293.2 K, x2 = 0.6667", "value": "120.77 ± 7.6", "unit": "mPa·s"}, {"measurement": "viscosity", "setting": "293.2 K, x2 = 0.75", "value": "57.84 ± 3.6", "unit": "mPa·s"}, {"measurement": "viscosity", "setting": "293.2 K, x2 = 0.8", "value": "40.23 ± 2.5", "unit": "mPa·s"}, {"measurement": "viscosity", "setting": "293.2 K, x2 = 0.8333", "value": "31.96 ± 2", "unit": "mPa·s"}, {"measurement": "viscosity", "setting": "293.2 K, x2 = 0.8571", "value": "27.03 ± 1.7", "unit": "mPa·s"}, {"measurement": "mass density", "setting": "293.2 K, x2 = 0.6667", "value": "1099.5 ± 2.4", "unit": "kg/m3"}, {"measurement": "mass density", "setting": "293.2 K, x2 = 0.75", "value": "1094.8 ± 2.4", "unit": "kg/m3"}, {"measurement": "mass density", "setting": "293.2 K, x2 = 0.8", "value": "1091.8 ± 2.4", "unit": "kg/m3"}, {"measurement": "mass density", "setting": "293.2 K, x2 = 0.8333", "value": "1089.8 ± 2.4", "unit": "kg/m3"}, {"measurement": "mass density", "setting": "293.2 K, x2 = 0.8571", "value": "1088.5 ± 2.4", "unit": "kg/m3"}, {"measurement": "electrical conductivity", "setting": "293.2 K, x2 = 0.6667", "value": "0.14 ± 0.003", "unit": "S/m"}, {"measurement": "electrical conductivity", "setting": "293.2 K, x2 = 0.75", "value": "0.238 ± 0.005", "unit": "S/m"}, {"measurement": "electrical conductivity", "setting": "293.2 K, x2 = 0.8", "value": "0.275 ± 0.006", "unit": "S/m"}, {"measurement": "electrical conductivity", "setting": "293.2 K, x2 = 0.8333", "value": "0.281 ± 0.006", "unit": "S/m"}, {"measurement": "electrical conductivity", "setting": "293.2 K, x2 = 0.8571", "value": "0.273 ± 0.005", "unit": "S/m"}, {"measurement": "viscosity", "setting": "298.2 K, x2 = 0.6667", "value": "90.33 ± 5.6", "unit": "mPa·s"}, {"measurement": "viscosity", "setting": "298.2 K, x2 = 0.75", "value": "44.64 ± 2.8", "unit": "mPa·s"}, {"measurement": "viscosity", "setting": "298.2 K, x2 = 0.8", "value": "31.55 ± 1.9", "unit": "mPa·s"}, {"measurement": "viscosity", "setting": "298.2 K, x2 = 0.8333", "value": "25.25 ± 1.6", "unit": "mPa·s"}, {"measurement": "viscosity", "setting": "298.2 K, x2 = 0.8571", "value": "21.43 ± 1.3", "unit": "mPa·s"}, {"measurement": "mass density", "setting": "298.2 K, x2 = 0.6667", "value": "1096.7 ± 2.4", "unit": "kg/m3"}, {"measurement": "mass density", "setting": "298.2 K, x2 = 0.75", "value": "1092.1 ± 2.4", "unit": "kg/m3"}, {"measurement": "mass density", "setting": "298.2 K, x2 = 0.8", "value": "1089.3 ± 2.4", "unit": "kg/m3"}, {"measurement": "mass density", "setting": "298.2 K, x2 = 0.8333", "value": "1087 ± 2.4", "unit": "kg/m3"}, {"measurement": "mass density", "setting": "298.2 K, x2 = 0.8571", "value": "1085.2 ± 2.4", "unit": "kg/m3"}, {"measurement": "electrical conductivity", "setting": "298.2 K, x2 = 0.6667", "value": "0.205 ± 0.004", "unit": "S/m"}, {"measurement": "electrical conductivity", "setting": "298.2 K, x2 = 0.75", "value": "0.314 ± 0.006", "unit": "S/m"}, {"measurement": "electrical conductivity", "setting": "298.2 K, x2 = 0.8", "value": "0.345 ± 0.007", "unit": "S/m"}, {"measurement": "electrical conductivity", "setting": "298.2 K, x2 = 0.8333", "value": "0.347 ± 0.007", "unit": "S/m"}, {"measurement": "electrical conductivity", "setting": "298.2 K, x2 = 0.8571", "value": "0.338 ± 0.007", "unit": "S/m"}, {"measurement": "viscosity", "setting": "303.2 K, x2 = 0.6667", "value": "68.41 ± 4.2", "unit": "mPa·s"}, {"measurement": "viscosity", "setting": "303.2 K, x2 = 0.75", "value": "35.17 ± 2.2", "unit": "mPa·s"}, {"measurement": "viscosity", "setting": "303.2 K, x2 = 0.8", "value": "25.2 ± 1.6", "unit": "mPa·s"}, {"measurement": "viscosity", "setting": "303.2 K, x2 = 0.8333", "value": "19.75 ± 1.2", "unit": "mPa·s"}, {"measurement": "viscosity", "setting": "303.2 K, x2 = 0.8571", "value": "16.82 ± 1", "unit": "mPa·s"}, {"measurement": "mass density", "setting": "303.2 K, x2 = 0.6667", "value": "1093 ± 2.4", "unit": "kg/m3"}, {"measurement": "mass density", "setting": "303.2 K, x2 = 0.75", "value": "1089 ± 2.4", "unit": "kg/m3"}, {"measurement": "mass density", "setting": "303.2 K, x2 = 0.8", "value": "1086 ± 2.4", "unit": "kg/m3"}, {"measurement": "mass density", "setting": "303.2 K, x2 = 0.8333", "value": "1083.8 ± 2.4", "unit": "kg/m3"}, {"measurement": "mass density", "setting": "303.2 K, x2 = 0.8571", "value": "1081.8 ± 2.4", "unit": "kg/m3"}, {"measurement": "electrical conductivity", "setting": "303.2 K, x2 = 0.6667", "value": "0.265 ± 0.005", "unit": "S/m"}, {"measurement": "electrical conductivity", "setting": "303.2 K, x2 = 0.75", "value": "0.388 ± 0.008", "unit": "S/m"}, {"measurement": "electrical conductivity", "setting": "303.2 K, x2 = 0.8", "value": "0.421 ± 0.008", "unit": "S/m"}, {"measurement": "electrical conductivity", "setting": "303.2 K, x2 = 0.8333", "value": "0.425 ± 0.009", "unit": "S/m"}, {"measurement": "electrical conductivity", "setting": "303.2 K, x2 = 0.8571", "value": "0.409 ± 0.008", "unit": "S/m"}, {"measurement": "viscosity", "setting": "308.2 K, x2 = 0.6667", "value": "53.43 ± 3.3", "unit": "mPa·s"}, {"measurement": "viscosity", "setting": "308.2 K, x2 = 0.75", "value": "28.22 ± 1.7", "unit": "mPa·s"}, {"measurement": "viscosity", "setting": "308.2 K, x2 = 0.8", "value": "20.25 ± 1.2", "unit": "mPa·s"}, {"measurement": "viscosity", "setting": "308.2 K, x2 = 0.8333", "value": "16.16 ± 0.99", "unit": "mPa·s"}, {"measurement": "viscosity", "setting": "308.2 K, x2 = 0.8571", "value": "13.76 ± 0.84", "unit": "mPa·s"}, {"measurement": "mass density", "setting": "308.2 K, x2 = 0.6667", "value": "1090.1 ± 2.4", "unit": "kg/m3"}, {"measurement": "mass density", "setting": "308.2 K, x2 = 0.75", "value": "1085.8 ± 2.4", "unit": "kg/m3"}, {"measurement": "mass density", "setting": "308.2 K, x2 = 0.8", "value": "1081.9 ± 2.4", "unit": "kg/m3"}, {"measurement": "mass density", "setting": "308.2 K, x2 = 0.8333", "value": "1080.3 ± 2.4", "unit": "kg/m3"}, {"measurement": "mass density", "setting": "308.2 K, x2 = 0.8571", "value": "1078.2 ± 2.4", "unit": "kg/m3"}, {"measurement": "electrical conductivity", "setting": "308.2 K, x2 = 0.6667", "value": "0.337 ± 0.007", "unit": "S/m"}, {"measurement": "electrical conductivity", "setting": "308.2 K, x2 = 0.75", "value": "0.477 ± 0.01", "unit": "S/m"}, {"measurement": "electrical conductivity", "setting": "308.2 K, x2 = 0.8", "value": "0.507 ± 0.01", "unit": "S/m"}, {"measurement": "electrical conductivity", "setting": "308.2 K, x2 = 0.8333", "value": "0.508 ± 0.01", "unit": "S/m"}, {"measurement": "electrical conductivity", "setting": "308.2 K, x2 = 0.8571", "value": "0.487 ± 0.01", "unit": "S/m"}, {"measurement": "viscosity", "setting": "313.2 K, x2 = 0.6667", "value": "42.42 ± 2.6", "unit": "mPa·s"}, {"measurement": "viscosity", "setting": "313.2 K, x2 = 0.75", "value": "23.08 ± 1.4", "unit": "mPa·s"}, {"measurement": "viscosity", "setting": "313.2 K, x2 = 0.8", "value": "16.71 ± 1", "unit": "mPa·s"}, {"measurement": "viscosity", "setting": "313.2 K, x2 = 0.8333", "value": "13.44 ± 0.82", "unit": "mPa·s"}, {"measurement": "viscosity", "setting": "313.2 K, x2 = 0.8571", "value": "11.45 ± 0.7", "unit": "mPa·s"}, {"measurement": "mass density", "setting": "313.2 K, x2 = 0.6667", "value": "1087.3 ± 2.4", "unit": "kg/m3"}, {"measurement": "mass density", "setting": "313.2 K, x2 = 0.75", "value": "1082.9 ± 2.4", "unit": "kg/m3"}, {"measurement": "mass density", "setting": "313.2 K, x2 = 0.8", "value": "1079.5 ± 2.4", "unit": "kg/m3"}, {"measurement": "mass density", "setting": "313.2 K, x2 = 0.8333", "value": "1076.1 ± 2.4", "unit": "kg/m3"}, {"measurement": "mass density", "setting": "313.2 K, x2 = 0.8571", "value": "1074.5 ± 2.4", "unit": "kg/m3"}, {"measurement": "electrical conductivity", "setting": "313.2 K, x2 = 0.6667", "value": "0.416 ± 0.008", "unit": "S/m"}, {"measurement": "electrical conductivity", "setting": "313.2 K, x2 = 0.75", "value": "0.576 ± 0.012", "unit": "S/m"}, {"measurement": "electrical conductivity", "setting": "313.2 K, x2 = 0.8", "value": "0.602 ± 0.012", "unit": "S/m"}, {"measurement": "electrical conductivity", "setting": "313.2 K, x2 = 0.8333", "value": "0.599 ± 0.012", "unit": "S/m"}, {"measurement": "electrical conductivity", "setting": "313.2 K, x2 = 0.8571", "value": "0.574 ± 0.011", "unit": "S/m"}, {"measurement": "viscosity", "setting": "318.2 K, x2 = 0.6667", "value": "34.34 ± 2.1", "unit": "mPa·s"}, {"measurement": "viscosity", "setting": "318.2 K, x2 = 0.75", "value": "19.14 ± 1.2", "unit": "mPa·s"}, {"measurement": "viscosity", "setting": "318.2 K, x2 = 0.8", "value": "14 ± 0.86", "unit": "mPa·s"}, {"measurement": "viscosity", "setting": "318.2 K, x2 = 0.8333", "value": "11.26 ± 0.69", "unit": "mPa·s"}, {"measurement": "viscosity", "setting": "318.2 K, x2 = 0.8571", "value": "9.46 ± 0.58", "unit": "mPa·s"}, {"measurement": "mass density", "setting": "318.2 K, x2 = 0.6667", "value": "1084.3 ± 2.4", "unit": "kg/m3"}, {"measurement": "mass density", "setting": "318.2 K, x2 = 0.75", "value": "1079.5 ± 2.4", "unit": "kg/m3"}, {"measurement": "mass density", "setting": "318.2 K, x2 = 0.8", "value": "1076.3 ± 2.4", "unit": "kg/m3"}, {"measurement": "mass density", "setting": "318.2 K, x2 = 0.8333", "value": "1073.6 ± 2.4", "unit": "kg/m3"}, {"measurement": "mass density", "setting": "318.2 K, x2 = 0.8571", "value": "1071.7 ± 2.4", "unit": "kg/m3"}, {"measurement": "electrical conductivity", "setting": "318.2 K, x2 = 0.6667", "value": "0.509 ± 0.01", "unit": "S/m"}, {"measurement": "electrical conductivity", "setting": "318.2 K, x2 = 0.75", "value": "0.677 ± 0.014", "unit": "S/m"}, {"measurement": "electrical conductivity", "setting": "318.2 K, x2 = 0.8", "value": "0.706 ± 0.014", "unit": "S/m"}, {"measurement": "electrical conductivity", "setting": "318.2 K, x2 = 0.8333", "value": "0.696 ± 0.014", "unit": "S/m"}, {"measurement": "electrical conductivity", "setting": "318.2 K, x2 = 0.8571", "value": "0.666 ± 0.013", "unit": "S/m"}]}]}
